Experimental data: ChEMBL document CHEMBL1201862, “PubChem BioAssay data set” (2004)
Activity calls are given as the source filed them.

Tests used:
Paired box protein Pax-8 = Paired box protein Pax-8 (Homo sapiens, UniProt Q06710); experiment: PAX8 transcriptional activity inhibition in RMG-I – RMG-I cells, luciferase, cherry-pick, dose response (AID 687027); assay type: functional, cell-based;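 note: luciferase reporter driven by Pax8 target thyroperoxidase promoter measured by SteadyGlo luminescence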
[1] = viability of uninfected HEp-2 cells – cell-based, HTS, cytotoxicity control for RSV inhibitor project, dose response (AID 2410); assay type: functional; conditions: human respiratory syncytial virus
Cytochrome P450 2C19 = Cytochrome P450 2C19 (Homo sapiens, UniProt P33261); experiment: Cytochrome panel assay with activity outcomes. Panel member name: p450-cyp2c19 Compounds with AC50 equal or less than 10 uM are considered active; assay type: functional
Cytochrome P450 3A4 = Cytochrome P450 3A4 (Homo sapiens, UniProt P08684);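 note: CYP3A4 tested as one member of a cytochrome P450 panel screen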
INS1 = experiment: INS-1E survival protection against cytokine death – cell-based, luminescence, retest, dose response (AID 449756); assay type: functional; conditions: Rattus norvegicus;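 note: cell death triggered by IL-1 beta plus TNF-alpha plus IFN-gamma mixture; protective hits raise ATP signal compared with cytokine alone wells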
[2] = microbe, parasite or virus in culture; assay type: functional; conditions: Mycobacterium tuberculosis
Cytochrome P450 2D6 = Cytochrome P450 2D6 (Homo sapiens, UniProt P10635);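 note: CYP2D6 member of a cytochrome P450 panel assay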
H4 = experiment: Luminescence Cell-Based Dose Response HTS to Identify Activators of 5'UTR Stem-Loop Driven Prion Protein mRNA Translation in H4 Neuroglioblastoma Cells. [Related pubchem assays: 1829 (Project Summary), 1814 (Primary HTS)]; assay type: functional; conditions: Homo sapiens
[3] = Luminescence Cell-Based Dose Response HTS to Identify Activators of Luciferase Translation or Activity in H4 […] Cells. [Related pubchem assays: 1829 (Project Summary), 1814 (Primary HTS)]; assay type: functional
Cytochrome P450 1A2 = target: T1, Cytochrome P450 1A2 (Homo sapiens, UniProt P05177);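 note: PubChem cytochrome P450 panel assay, CYP1A2 panel member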
T1 sequence (P05177 whole entry): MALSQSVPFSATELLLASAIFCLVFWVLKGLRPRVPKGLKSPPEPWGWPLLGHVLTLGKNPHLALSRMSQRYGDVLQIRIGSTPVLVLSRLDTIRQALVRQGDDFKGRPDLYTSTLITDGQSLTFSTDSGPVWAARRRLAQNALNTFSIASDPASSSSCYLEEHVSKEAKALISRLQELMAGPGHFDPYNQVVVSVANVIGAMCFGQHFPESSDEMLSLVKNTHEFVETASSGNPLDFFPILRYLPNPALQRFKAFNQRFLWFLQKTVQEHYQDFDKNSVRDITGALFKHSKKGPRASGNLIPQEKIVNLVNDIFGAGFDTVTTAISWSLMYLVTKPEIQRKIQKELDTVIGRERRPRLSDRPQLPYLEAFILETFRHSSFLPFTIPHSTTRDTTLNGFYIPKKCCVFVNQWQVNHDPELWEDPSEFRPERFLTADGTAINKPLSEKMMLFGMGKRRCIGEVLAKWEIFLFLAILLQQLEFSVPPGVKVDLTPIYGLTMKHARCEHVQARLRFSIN

[4] = Luminescence Cell-Based Dose Response HTS to Identify Inhibitors of 5'UTR Stem-Loop Driven Prion Protein mRNA Translation in H4 Neuroglioblastoma Cells. [Related pubchem assays: 1827 (Project Summary), 1813 (Primary HTS)]; assay type: functional
[5] = luciferase reporter signal suppression in cells – H4 neuroglioma cells, luminescence, dose response (AID 1990); assay type: functional, cell-based
[6] = alpha-synuclein stem-loop luciferase translation blockers – H4 neuroglioma cells, luminescence, confirmation (AID 1988); assay type: functional, cell-based
[7] = NIH-3T3 fibroblast cytotoxicity, dose response, cytotoxicity control, cell-based, fluorescence, Alamar Blue, secondary assay (AID 2327); assay type: functional;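 note: NIH-3T3 mouse fibroblasts cultured with fluconazole at 8 µg/mL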
[8] = fluconazole-exposed Candida albicans growth modulators – fluorescence, retest, confirmation (AID 2467); assay type: functional, cell-based
Streptococcus = experiment: GAS UMAA2166 growth inhibition – luminescence, BacTiterGlo, counter-screen for streptokinase expression inhibitor project, dose response (AID 1915); assay type: functional, organism-based;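 note: potency for reduction of bacterial viability or growth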
[9] = system: Streptococcus sp. 'group A'; experiment: Streptococcus pyogenes SK(-)GAS viability under kanamycin – luminescence, BacTiterGlo, confirmation, counter-screen for streptokinase expression inhibitor project, dose response (AID 1900); assay type: functional, organism-based
Streptokinase A = target: T2, Streptokinase A (Streptococcus pyogenes serotype M1, UniProt P10520); experiment: viability-normalized secreted streptokinase activity reduction – plasminogen activation absorbance, OD405, dose response (AID 1914); assay type: functional, Streptococcus pyogenes M1 GAS;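 note: secreted streptokinase activity via plasminogen activation per viability signal from cell pellet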
T2 sequence (P10520 whole entry): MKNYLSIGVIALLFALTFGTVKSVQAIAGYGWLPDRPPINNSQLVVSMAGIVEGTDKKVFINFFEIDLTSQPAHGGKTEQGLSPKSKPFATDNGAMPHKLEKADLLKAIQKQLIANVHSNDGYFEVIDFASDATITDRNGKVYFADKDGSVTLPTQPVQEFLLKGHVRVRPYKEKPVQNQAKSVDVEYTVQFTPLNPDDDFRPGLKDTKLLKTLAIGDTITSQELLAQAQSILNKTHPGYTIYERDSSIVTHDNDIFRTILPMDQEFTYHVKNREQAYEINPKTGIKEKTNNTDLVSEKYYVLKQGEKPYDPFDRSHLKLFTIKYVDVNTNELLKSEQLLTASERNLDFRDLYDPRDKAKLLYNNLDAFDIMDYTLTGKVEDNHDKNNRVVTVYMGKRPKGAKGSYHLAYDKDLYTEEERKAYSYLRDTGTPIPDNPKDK

[10] = Luminescence Cell-Based Dose Retest to Confirm Inhibitors of Cancer Stem Cells. [Related pubchem assays (depositor defined):AID2717, AID2721]; assay type: functional; conditions: Homo sapiens
[11] = viability of HCT116 lacking mutant beta-catenin – cell-based, human colon tumor, dose response (AID 1045); assay type: functional;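 note: HCT116 colon tumor cells with beta catenin knocked out; cells exposed to compound for 60 hours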

Sequence of Paired box protein Pax-8 (Q06710 whole entry): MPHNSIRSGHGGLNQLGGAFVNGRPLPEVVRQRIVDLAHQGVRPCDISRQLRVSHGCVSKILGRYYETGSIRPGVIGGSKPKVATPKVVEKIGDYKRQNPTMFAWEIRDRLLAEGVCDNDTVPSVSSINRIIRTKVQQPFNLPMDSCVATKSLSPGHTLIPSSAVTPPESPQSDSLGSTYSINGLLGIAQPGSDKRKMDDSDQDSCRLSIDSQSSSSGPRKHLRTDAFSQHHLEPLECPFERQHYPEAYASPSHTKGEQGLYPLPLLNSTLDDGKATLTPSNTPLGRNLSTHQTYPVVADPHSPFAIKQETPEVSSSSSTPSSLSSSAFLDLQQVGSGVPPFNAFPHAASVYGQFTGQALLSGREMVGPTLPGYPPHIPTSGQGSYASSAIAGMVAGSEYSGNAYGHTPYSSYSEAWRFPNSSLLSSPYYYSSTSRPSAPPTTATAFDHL
Sequence of Cytochrome P450 3A4 (P08684 whole entry): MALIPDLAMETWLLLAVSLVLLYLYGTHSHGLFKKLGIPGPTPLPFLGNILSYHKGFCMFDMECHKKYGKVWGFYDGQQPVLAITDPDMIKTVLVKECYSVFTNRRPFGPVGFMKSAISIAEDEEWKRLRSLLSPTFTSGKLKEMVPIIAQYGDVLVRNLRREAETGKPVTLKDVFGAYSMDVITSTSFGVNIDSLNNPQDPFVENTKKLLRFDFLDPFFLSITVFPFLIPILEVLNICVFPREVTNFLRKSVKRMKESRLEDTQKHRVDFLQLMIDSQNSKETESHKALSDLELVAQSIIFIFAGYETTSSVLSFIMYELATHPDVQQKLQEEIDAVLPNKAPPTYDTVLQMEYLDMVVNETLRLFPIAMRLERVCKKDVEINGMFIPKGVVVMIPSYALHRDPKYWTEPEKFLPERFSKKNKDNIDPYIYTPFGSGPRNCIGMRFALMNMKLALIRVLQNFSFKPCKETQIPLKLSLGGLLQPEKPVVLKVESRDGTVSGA
Sequence of Cytochrome P450 2C19 (P33261 whole entry): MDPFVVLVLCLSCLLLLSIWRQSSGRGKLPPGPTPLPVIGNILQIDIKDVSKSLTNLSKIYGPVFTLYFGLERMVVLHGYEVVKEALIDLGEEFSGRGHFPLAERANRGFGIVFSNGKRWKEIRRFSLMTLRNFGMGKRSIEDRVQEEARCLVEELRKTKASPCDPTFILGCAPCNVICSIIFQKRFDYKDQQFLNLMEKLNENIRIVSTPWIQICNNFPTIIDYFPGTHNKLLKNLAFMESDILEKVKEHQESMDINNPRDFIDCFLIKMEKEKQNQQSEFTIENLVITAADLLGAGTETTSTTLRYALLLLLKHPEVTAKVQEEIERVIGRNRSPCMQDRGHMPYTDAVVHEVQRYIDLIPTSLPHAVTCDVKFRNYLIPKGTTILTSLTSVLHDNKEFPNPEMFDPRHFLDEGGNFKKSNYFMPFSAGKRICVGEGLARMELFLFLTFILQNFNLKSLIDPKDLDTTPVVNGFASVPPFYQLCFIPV
Sequence of Cytochrome P450 2D6 (P10635 whole entry): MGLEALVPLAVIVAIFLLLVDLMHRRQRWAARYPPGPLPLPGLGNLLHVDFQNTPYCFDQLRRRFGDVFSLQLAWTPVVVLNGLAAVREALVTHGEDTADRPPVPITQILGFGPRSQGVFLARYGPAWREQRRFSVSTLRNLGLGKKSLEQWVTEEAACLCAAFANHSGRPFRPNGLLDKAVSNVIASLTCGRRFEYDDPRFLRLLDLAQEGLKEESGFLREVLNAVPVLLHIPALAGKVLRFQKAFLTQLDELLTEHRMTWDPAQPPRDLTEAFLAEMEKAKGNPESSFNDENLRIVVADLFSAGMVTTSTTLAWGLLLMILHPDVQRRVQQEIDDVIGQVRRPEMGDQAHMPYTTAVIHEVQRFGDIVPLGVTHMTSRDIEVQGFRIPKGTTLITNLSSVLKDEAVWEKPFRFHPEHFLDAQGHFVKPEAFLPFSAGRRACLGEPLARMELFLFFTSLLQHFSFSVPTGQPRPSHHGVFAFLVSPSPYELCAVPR

COc1ccc(CN(C)C[C@H]2OCCCC[C@H](C)Oc3ccc(NC(=O)Nc4ccc(C(F)(F)F)cc4)cc3C(=O)N([C@H](C)CO)C[C@@H]2C)cc1
AC50 (Paired box protein Pax-8): 10.9 µM (active)

Cc1cccc(NC(=O)c2[nH]cnc2C(=O)NCC(=O)OC(C)(C)C)c1
CC50 [1]: > 50 µM (active)

COc1ccc(C2C(C(=O)c3ccc(Cl)cc3)=C(O)C(=O)N2CCN2CCOCC2)c(OC)c1 (stereo unspecified)
AC50 (Cytochrome P450 2C19; read-out: AC50): 39.8 µM (inconclusive) | AC50 (Cytochrome P450 3A4): 20 µM (inconclusive)

CCS(=O)(=O)c1ccc(OC)c(N=Nc2ccc(O)c3ncccc23)c1
AC50 (INS1): 8.44 µM (active)

Fc1cccc(CCN2CCNC[C@H]2Cc2cccc3ccccc23)c1
CC50 [2]: 26.2 µM (active)

COc1cc(OC)c2cc(-c3ccncc3)cnc2c1
AC50 (Cytochrome P450 2C19; read-out: AC50): 31.6 µM (inconclusive) | AC50 (Cytochrome P450 3A4): 0.316 µM (inconclusive)

Cc1cc(Nc2ccc(Br)cc2)nc(-c2ccccc2O)n1
CC50 [1]: 31.9 µM (active)

O=C(Nc1cnc2ccccc2c1)c1cccc(-n2cnnn2)c1
AC50 (Cytochrome P450 2D6): 7.94 µM (inconclusive)

c1ccc2nc(-c3ccncc3)ccc2c1
CC50 [1]: 25.4 µM (active)

Oc1ncnc2c1sc1nc3c(c(-c4ccc(Cl)cc4)c12)CCC3
CC50 [1]: > 50 µM (active)

Cc1ccc(S(=O)(=O)c2nc(Nc3nccs3)sc2Cl)cc1
CC50 [2]: > 40 µM (active)

CC1CCc2c(sc3ncnc(NCCCOC(C)C)c23)C1 (stereo unspecified)
CC50 [2]: > 40 µM (active)

CCOC(=O)c1[nH]c(C)c(C(=O)C2=C(O)C(=O)N(CCN3CCOCC3)C2c2cccs2)c1C (stereo unspecified)
AC50 (Cytochrome P450 3A4): 14.1 µM (inconclusive)

CC(=O)NCCNc1nc(-c2ccc(N(C)C)cc2)nc2ccccc12
AC50 (Cytochrome P450 2D6): 20 µM (inconclusive) | AC50 (Cytochrome P450 3A4): 10 µM (inconclusive)

CCC(=O)c1ccc(OCC(O)CN2CCCCC2)cc1.Cl (stereo unspecified)
AC50 (Cytochrome P450 2D6): 39.8 µM (inconclusive) | AC50 (Cytochrome P450 2C19): inconclusive

COCCCNC(=O)Cn1nnc(-c2ccc(NC(=O)c3cccnc3)cc2)n1
AC50 (INS1): 3.95 µM (active)

CC(C)NC(=O)C(C)n1cccc1C(=O)c1ccccc1 (stereo unspecified)
AC50 (Cytochrome P450 3A4): 15.8 µM (inconclusive)

Oc1nc2c(-c3cccc(Br)c3)nnn2c2ccccc12
EC50 (H4): 18.8 µM (active) | EC50 [3]: 0.258 µM (active)

CCOC(=O)N1CCN(C(=O)c2cccn3c(=O)c4cc(Cl)ccc4nc23)CC1
AC50 (Cytochrome P450 1A2): 25.1 µM (inconclusive)

C[C@@H](NC(=O)c1[nH]cnc1C(=O)N[C@@H](Cc1ccccc1)C(=O)OC(C)(C)C)c1ccccc1
AC50 (Paired box protein Pax-8): 5.32 µM (active)

CCOc1ccc(-n2c(SCC(=O)Nc3nccs3)nc3c(c2=O)SCC3)cc1
EC50 [4]: 19.1 µM (active) | EC50 [5]: 11.7 µM (active) | EC50 [6]: 12.8 µM (active)

CN(C)c1nc(-c2ccoc2)nc2ccccc12
AC50 (Cytochrome P450 2D6): 39.8 µM (inconclusive) | AC50 (Cytochrome P450 2C19; read-out: AC50): 31.6 µM (inconclusive) | AC50 (Cytochrome P450 3A4): 25.1 µM (inconclusive)

COCCSc1nnc(NC(=O)CCS(=O)(=O)c2ccccc2)s1
EC50 [7]: > 150 µM (inactive) | EC50 [8]: 3.97 µM (active)

COc1ccc(COC(=O)N/N=C2/C[C@@H](O)[C@@H](O)[C@@H]3[C@H]4C(=O)N(c5ccc(F)cc5F)C(=O)[C@@H]4CC[C@H]23)cc1
AC50 (Cytochrome P450 3A4): 6.31 µM (inconclusive)

CCCc1ccc(C(=O)NNc2cccc(C)c2)cc1
EC50 [7]: 30.2 µM (active) | EC50 [8]: > 38 µM (not active)

COc1cccc(/C=N/NC(=O)CCCC(=O)NC2CCCCC2)c1
EC50 [4]: > 120 µM (not active) | EC50 [5]: > 120 µM (not active) | EC50 [6]: 15.6 µM (active)

Cc1ccc(C(NC(=O)NC(C)c2ccccc2)C(Cl)(Cl)Cl)cc1F (stereo unspecified)
EC50 [4]: 18.7 µM (active) | EC50 (Streptococcus): 99.7 µM (active) | EC50 [9]: 3.25 µM (active) | EC50 [5]: 12 µM (active) | EC50 [6]: > 120 µM (not active) | EC50 (Streptokinase A): 7.32 µM (active)

Cc1cc(C)cc(NC(=O)NCC(O)COc2ccc([N+](=O)[O-])cc2)c1 (stereo unspecified)
CC50 [1]: > 50 µM (active)

Cc1ccc2c(c1)N(C(=O)CCC(=O)N1CCN(c3cccc(C)c3C)CC1)CCO2
CC50 [1]: 5.57 µM (active)

Cn1c(=O)c(-c2ccc(Cl)cc2)nc2cnc(Nc3ccccc3)nc21
AC50 (Cytochrome P450 1A2): 31.6 µM (inconclusive)

NC(CC(=O)Nc1cc(C(F)(F)F)ccc1Cl)=NO
AC50 (Cytochrome P450 2C19): inconclusive | AC50 (Cytochrome P450 3A4): 3.98 µM (inconclusive)

NC(=O)N/N=C/c1ccc2cccc(OCc3ccccc3)c2n1
EC50 [4]: > 120 µM (not active) | EC50 [5]: 17.8 µM (active) | EC50 [6]: 61 µM (active)

COc1ccc(-c2nn(-c3ccccc3)cc2/C=C\C(=O)Nc2ccc(C(=O)O)cc2)cc1
CC50 [1]: 26.4 µM (active)

CCOc1ncccc1C(=O)Nc1ccc(F)cc1
CC50 [1]: 46.3 µM (active)

Cc1ccc(CSCc2ccc(C(=O)NCCC(C)C)o2)cc1
CC50 [1]: 20.2 µM (active)

COCCSc1nnc(NC(=O)C(C)(C)C)s1
AC50 (Cytochrome P450 1A2): 25.1 µM (inconclusive)

C/C(CCN1CCCCc2nc(C)c(C)cc21)=N\O[C@@H](C)CN1CCCCc2nc(C)c(C)cc21
AC50 (Cytochrome P450 2D6): 5.01 µM (inconclusive)

COc1cc(/C=C/c2nc(O)nc(O)c2[N+](=O)[O-])ccc1OCCC(C)C
AC50 [10]: 5.94 µM (active) | CC50 [1]: 19.1 µM (active)

CC1CCCC=CC2CC(OC(=O)CN(C)C)CC2C(O)C=CC(=O)O1 (stereo unspecified)
AC50 (Paired box protein Pax-8): < 0.26 µM (active)

COC(=O)c1cn(S(=O)(=O)c2ccccc2)c2ccccc12
EC50 [4]: > 120 µM (not active) | EC50 [5]: > 120 µM (not active) | EC50 [6]: > 120 µM (not active)

CCCC1CCC(c2ccc(C(=O)NN)cc2)CC1 (stereo unspecified)
AC50 (INS1): 10.9 µM (active)

O=C(NCc1ccco1)Nc1cccs1
AC50 (Cytochrome P450 2D6): 14.1 µM (inconclusive) | AC50 (Cytochrome P450 3A4): 20 µM (inconclusive)

N=C(NOC(=O)C12CC3CC(CC(C3)C1)C2)c1ccccc1
EC50 [11]: 90.5 µM (active)

O=C(Nc1nc(-c2cc(Cl)sc2Cl)cs1)c1cccs1
AC50 [10]: 1.13 µM (active) | CC50 [2]: 25.9 µM (active) | EC50 (Streptococcus): 18.1 µM (active) | EC50 [9]: 14.2 µM (active) | EC50 (Streptokinase A): > 50 µM (not active)

CC(C)CCNC(=O)C(c1ccco1)N(Cc1ccc(F)cc1)C(=O)c1snc(C(N)=O)c1N (stereo unspecified)
EC50 [7]: 26.5 µM (active) | EC50 [8]: > 38 µM (not active)

COc1cc(OC)cc(N(C(=O)C2COc3ccccc3O2)C(C(=O)NC2CCCCC2)c2ccc(O)cc2)c1 (stereo unspecified)
EC50 [7]: 94.7 µM (active) | EC50 [8]: 0.798 µM (inconclusive)

CCC(C)C1C(C#N)=C(N)Oc2[nH]nc(C)c21 (stereo unspecified)
EC50 [11]: 189 µM (active)

CC(C)[C@H](N)c1nnc(SCc2ccc(Cl)cc2)o1
AC50 (Cytochrome P450 2D6): 28.2 µM (inconclusive)

CC1(C)C=Cc2c(ccc3c2OC[C@@H](c2ccc(O)cc2O)C3)O1 [GLABRIDIN]
AC50 [10]: 6.05 µM (active) | CC50 [1]: 13.4 µM (active)

O=C1CCCN1c1ccc(S(=O)(=O)Oc2cccc(Cl)c2)cc1[N+](=O)[O-]
AC50 (Cytochrome P450 2D6): 1.78 µM (inconclusive)

CSc1ccccc1OCc1cc(C(=O)N2CCc3c(Cl)cccc3C2)no1
AC50 (INS1): 7.1 µM (active)

Cc1ccc(C(=O)C[n+]2ccc(Cc3ccccc3)cc2)cc1
EC50 [4]: 13.7 µM (active) | EC50 [5]: 14.3 µM (active) | EC50 [6]: 10.5 µM (active)
